Experimental data as given in patent publication US20130217702A1 (Richter Gedeon Nyrt., priority 2010, published 2013).

What was measured:
[1] = target: T1, recombinant human B1 receptors (Homo sapiens, UniProt P46663); test: Functional assay: antagonist potency by cytosolic calcium measurement (plate reader fluorimeter) in CHO-B1 cells, agonist LysDABK; assay type: cell-based; conditions: CHO-B1 cells, inhibition of LysDABK (EC80)-evoked [Ca2+]i elevation; read-out: B1 func.
T1 construct: host or cells: CHO (CHO-B1)
T1 sequence (P46663 1-353): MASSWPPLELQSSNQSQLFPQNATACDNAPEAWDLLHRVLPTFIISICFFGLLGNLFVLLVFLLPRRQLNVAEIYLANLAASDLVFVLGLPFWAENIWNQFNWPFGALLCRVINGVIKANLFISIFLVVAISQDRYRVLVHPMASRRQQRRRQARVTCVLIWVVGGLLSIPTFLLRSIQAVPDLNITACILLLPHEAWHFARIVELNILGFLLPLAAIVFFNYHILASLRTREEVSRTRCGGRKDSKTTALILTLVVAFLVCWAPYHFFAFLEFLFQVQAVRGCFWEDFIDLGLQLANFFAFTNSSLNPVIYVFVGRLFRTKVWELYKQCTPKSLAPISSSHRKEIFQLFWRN
Procedure: Assessment of Antagonist Potency at B1 Receptors In Vitro by Measurement of Cytosolic Calcium Ion Concentration with a Plate Reader Fluorimeter in Cells Expressing Recombinant Human B1 Receptors
Chinese hamster ovary (CHO) cells stably expressing recombinant human B1 (CHO-B1, Euroscreen) receptors were cultured in Dulbecco's Modified Eagle's Medium (DMEM) containing 10% Fetal Calf Serum (FCS), 100 U/ml penicillin, 0.1 mg/ml streptomycin, 0.25 μg/ml amphotericin B, 1% Minimum Essential Medium Eagle (MEM), non essential amino acid solution, 600 μg/ml G418. Cells were kept at 37° C. in a humidified incubator in an atmosphere of 5% CO2/95% air and were passaged 1:4 three times a week. Cells were plated at 1.5−2.5×10^4 cell/well on standard 96-well microplates, measurements of cytosolic calcium ion concentration ([Ca^2+]i) were carried out 1-2 days after cell plating.
Measurements of [Ca^2+]i were carried out on CHO-B1 cells stably expressing human B1 receptors, respectively. Cells were grown in standard 96-well microplates and before the measurement were loaded with a fluorescent Ca^2+-sensitive dye, fluo-4/AM (2 μM): after removing the culture medium the dye was added to the cells (dissolved in assay buffer: 145 mM NaCl, 5 mM KCl, 2 mM MgCl2, 2 mM CaCl2, 10 mM HEPES, 20 mM D-glucose, 2 mM probenecid, 100 μl/well) and cells were incubated at 37° C. in a humidified incubator in an atmosphere of 5% CO2/95% air for 40-120 min. To stop dye loading cells were washed twice with assay buffer. After washing, various concentrations of the test compounds (diluted in extracellular medium from a DMSO stock solution, final DMSO concentration was <0.1%) or buffer were added to each well depending on the experimental setup. After incubation at 37° C. for 20-25 min. baseline and agonist-evoked changes of [Ca^2+]; were measured column by column with a plate reader fluorimeter (Fluoroskan Ascent, Labsystems). Excitation and detection of emission was carried out from the bottom of the plate. Filters used for Fluo-4: excitation filter 485 nm, emission filter 538 nm. The whole measurement process was performed at 37° C. and was controlled by custom software. Inhibitory potency of the test compounds was assessed by measuring the reduction in the agonist-evoked [Ca^2+]i-elevation in the presence of different concentrations of the compounds. The agonist was LysDABK for CHO-B1 cells. Agonist was applied at an EC80 concentration; the EC80-values were derived from daily determined dose-response curves. Fluorescence data were expressed as ΔF/F (fluorescence change normalized to baseline). All treatments on a single plate were measured in multiple wells. Data from all wells with the same treatment were averaged and the average values were used for analysis. Inhibitory potency of a compound at a single concentration point was expressed as percent inhibition of the control agonist response. Sigmoidal concentration-inhibition curves were fitted to the data (derived from at least three independent experiments) and IC50-values were determined as the concentration that produces half of the maximal inhibition caused by the compound.

[2] = target: T2, human recombinant bradykinin B1 receptor (Homo sapiens, UniProt P46663); test: Human recombinant bradykinin B1 receptor competitive radioligand binding; conditions: hB1 expressed in CHO cells, [3H]-[Des-Arg10] Kallidin radioligand; read-out: B1 binding
T2 construct: host or cells: CHO cells, clone hB1-A5
T2 sequence (P46663 1-353): T1 sequence (P46663 1-353)
Procedure: Assessment of Ligand Binding Affinity to B1 and B2 Receptors In Vitro by Competitive Radioligand Binding Assay
Binding assays were carried out on human recombinant bradykinin) receptors (expressed in CHO cells, hB1-A5) according to the Euroscreen Technical Data Sheet (Cat.No.:ES-091). 20 μg protein/tube was incubated with [3,4-prolyl-3,4-^3H(N)]-[Des-Arg^10] Kallidin as radioligand. Non specific binding was determined in the presence of 10 μM Lys-des-Arg^9-Bradykinin. The final incubation volume was 250 μl. Samples were incubated for 15 min. at 25° C. then were rapidly vacuum filtered through GF/B filters presoaked for at least 1 h in 0.5% PEI. Radioactivity was determined by liquid scintillation spectroscopy.
The ligand displacement by the compounds was determined using a minimum of seven concentrations in triplicate, and experiments were repeated at least two times. The specific radioligand binding is defined as the difference between total binding and the non-specific binding determined in the presence of an excess of unlabelled ligand. Results are expressed as a percent inhibition of specific binding obtained in the presence of RGH-478 or reference drugs. IC50 values (i.e. concentration of compound giving 50% inhibition of specific binding) were calculated from concentration-displacement curves by sigmoidal fitting using GraphPad Prism Software 4.0. Ki values (i.e. inhibition constants) were calculated using the Cheng-Prusoff equation. KD was determined from the Scatchard plot. (Editor-in-chief: Enna, S. J. and Williams, M. Current protocols in pharmacology vol. 1. John Wiley & sons Inc., 1998)

SMILES | IC50 [1] [µM] | Ki [2] [µM]
CNC(=O)c1c(Cl)c2ccccc2n1-c1ccc(C(C)NC(=O)C2(NC(=O)C(F)(F)F)CC2)cc1 (centres unmarked) [Example 32, 3-Chloro-1-[4-(1-{[1-(2,2,2-trifluoro-acetylamino)-cyclopropanecarbonyl]-amino}-ethyl)-phenyl]-1H-indole-2-carboxylic acid methylamide] | < 0.02 | < 0.02
COc1ccc2c(c1)cc(-c1nc(C)no1)n2-c1ccc(CNC(=O)C2(NC(=O)c3cc(OC)no3)CC2)cc1 [Example 80, 3-Methoxy-isoxazole-5-carboxylic acid (1-{4-[5-methoxy-2-(3-methyl-[1,2,4]oxadiazol-5-yl)-indol-1-yl]-benzylcarbamoyl}-cyclopropyl)-amide] | < 0.02 | < 0.02
Cc1nc(-c2c(Cl)c3ccccc3n2-c2ccc(CNC(=O)C3(NC(=O)c4cnc5ccccc5c4)CC3)cc2)no1 [Example 159, Quinoline-3-carboxylic acid (1-{4-[3-chloro-2-(5-methyl-[1,2,4]oxadiazol-3-yl)-indol-1-yl]-benzylcarbamoyl}-cyclopropyl)-amide] | < 0.02 | < 0.02
Cc1nc(-c2c(Cl)c3ccccc3n2-c2ccc(CNC(=O)C3(NC(=O)c4ccc(=O)[nH]c4)CC3)cc2)no1 [Example 160, 6-Oxo-1,6-dihydro-pyridine-3-carboxylic acid (1-{4-[3-chloro-2-(5-methyl-[1,2,4]oxadiazol-3-yl)-indol-1-yl]-benzylcarbamoyl}-cyclopropyl)-amide] | < 0.02 | < 0.02
Cc1nc(-c2c(Cl)c3ccccc3n2-c2ccc(CNC(=O)C3(NC(=O)c4cc(F)cc(C(F)(F)F)c4)CC3)cc2)no1 [Example 94, N-(1-{4-[3-Chloro-2-(5-methyl-[1,2,4]oxadiazol-3-yl)-indol-1-yl]-benzylcarbamoyl}-cyclopropyl)-3-fluoro-5-trifluoromethyl-benzamide] | < 0.02 | < 0.02
Cc1nc(-c2c(Cl)c3ccccc3n2-c2ccc(CNC(=O)C3(NC(=O)c4cccnc4Cl)CC3)c(F)c2)no1 [Example 104, 2-Chloro-N-(1-{4-[3-chloro-2-(5-methyl-[1,2,4]oxadiazol-3-yl)-indol-1-yl]-2-fluoro-benzylcarbamoyl}-cyclopropyl)-nicotinamide] | < 0.02 | < 0.02
Cc1nc(-c2c(Cl)c3ccccc3n2-c2ccc(CNC(=O)C3(NC(=O)c4cncc(C(F)(F)F)c4)CC3)c(F)c2)no1 [Example 111, N-(1-{4-[3-Chloro-2-(5-methyl-[1,2,4]oxadiazol-3-yl)-indol-1-yl]-2-fluoro-benzylcarbamoyl}-cyclopropyl)-5-trifluoromethyl-nicotinamide] | < 0.02 | < 0.02
Cc1nc(-c2c(Cl)c3ccccc3n2-c2ccc(CNC(=O)C3(NC(=O)Cc4ccsc4)CC3)cc2)no1 [Example 147, 1-(2-Thiophen-3-yl-acetylamino)-cyclopropanecarboxylic acid 4-[3-chloro-2-(5-methyl-[1,2,4]oxadiazol-3-yl)-indol-1-yl]-benzylamide] | 0.02 to 0.1 | 0.1 to 0.5
Cc1cc(C(=O)NC2(C(=O)NCc3ccc(-n4c(-c5noc(C)n5)c(Cl)c5ccccc54)cc3F)CC2)no1 [Example 107, 5-Methyl-isoxazole-3-carboxylic acid (1-{4-[3-chloro-2-(5-methyl-[1,2,4]oxadiazol-3-yl)-indol-1-yl]-2-fluoro-benzylcarbamoyl}-cyclopropyl)-amide] | < 0.02 | < 0.02
COc1cc(C(=O)NC2(C(=O)NCc3ccc(-n4c(-c5noc(C)n5)c(Cl)c5cc(Cl)ccc54)cc3)CC2)on1 [Example 66, 3-Methoxy-isoxazole-5-carboxylic acid (1-{4-[3,5-dichloro-2-(5-methyl-[1,2,4]oxadiazol-3-yl)-indol-1-yl]-benzylcarbamoyl}-cyclopropyl)-amide] | < 0.02 | < 0.02
